In patent US12590126B2, “Compounds for selective disruption of protein-protein interactions” (SyntheX, Inc., priority 2017, dated 2026):
Where no end group is shown, it is not given here. [ ]: non-standard residue; d: D form. The star is where a group is joined. C6_5FAM = 5-carboxyfluorescein (5FAM) label attached via a 6-carbon linker to the lysine epsilon amino group, O=C(NCCCCCC(=O)*)c1ccc2c(c1)C(=O)OC21c2ccc(O)cc2Oc2cc(O)ccc21; 2Nal = N[C@@H](Cc1ccc2ccccc2c1)C(=O)O; dNle = CCCC[C@@H](N)C(=O)O

System: SSP-25 cells
Assay: xCELLigence cell death assay in SSP-25 cells (cellular assay for RAD51 inhibition)
Type: cell-based
Settings: concentration gradient added at 20 hour mark, only values with R^>0.85 shown
Procedure: The efficacy of the peptides described herein was assessed by their ability to cause death in SSP-25 cells, which have amplification of RAD51 and are dependent on its activity.
First, 5,000 SSP25 cells were plated, and adherence and growth was measured for 20 hours using live measurements of current impedance through the plate using the xCELLigence™ instrument. At the 20 hour mark, a concentration gradient of each compound or a PBS control was added to the SSP-25 cells, which were cultured in […] RMPI media with 10% FBS. […] Only values with confidence and R^>0.85 are shown.

Ac-lmrsvrlrvGlrr-NH2 (Ac-[dL][dM][dR][dS][dV][dR][dL][dR][dV]G[dL][dR][dR]-NH2; SMILES CSCC[C@@H](NC(=O)[C@@H](CC(C)C)NC(C)=O)C(=O)N[C@H](CCCNC(=N)N)C(=O)N[C@H](CO)C(=O)N[C@@H](C(=O)N[C@H](CCCNC(=N)N)C(=O)N[C@H](CC(C)C)C(=O)N[C@H](CCCNC(=N)N)C(=O)N[C@@H](C(=O)NCC(=O)N[C@H](CC(C)C)C(=O)N[C@H](CCCNC(=N)N)C(=O)N[C@H](CCCNC(=N)N)C(N)=O)C(C)C)C(C)C) [Compound 4]
IC50: 67 µM

Ac-lmrsvrlrvGlrkrrrrrrrk(C6_5FAM)-NH2 (Ac-[dL][dM][dR][dS][dV][dR][dL][dR][dV]G[dL][dR][dK][dR][dR][dR][dR][dR][dR][dR][dK](C6_5FAM)-NH2; SMILES CSCC[C@@H](NC(=O)[C@@H](CC(C)C)NC(C)=O)C(=O)N[C@H](CCCNC(=N)N)C(=O)N[C@H](CO)C(=O)N[C@@H](C(=O)N[C@H](CCCNC(=N)N)C(=O)N[C@H](CC(C)C)C(=O)N[C@H](CCCNC(=N)N)C(=O)N[C@@H](C(=O)NCC(=O)N[C@H](CC(C)C)C(=O)N[C@H](CCCNC(=N)N)C(=O)N[C@H](CCCCN)C(=O)N[C@H](CCCNC(=N)N)C(=O)N[C@H](CCCNC(=N)N)C(=O)N[C@H](CCCNC(=N)N)C(=O)N[C@H](CCCNC(=N)N)C(=O)N[C@H](CCCNC(=N)N)C(=O)N[C@H](CCCNC(=N)N)C(=O)N[C@H](CCCNC(=N)N)C(=O)N[C@H](CCCCNC(=O)CCCCCNC(=O)c1ccc2c(c1)C(=O)OC21c2ccc(O)cc2Oc2cc(O)ccc21)C(N)=O)C(C)C)C(C)C) [Compound 13]
IC50: 10 µM

Ac-rrrrrraGphlrkvralrslGlrlaq-NH2 (Ac-[dR][dR][dR][dR][dR][dR][dA]G[dP][dH][dL][dR][dK][dV][dR][dA][dL][dR][dS][dL]G[dL][dR][dL][dA][dQ]-NH2; SMILES CC(=O)N[C@H](CCCNC(=N)N)C(=O)N[C@H](CCCNC(=N)N)C(=O)N[C@H](CCCNC(=N)N)C(=O)N[C@H](CCCNC(=N)N)C(=O)N[C@H](CCCNC(=N)N)C(=O)N[C@H](CCCNC(=N)N)C(=O)N[C@H](C)C(=O)NCC(=O)N1CCC[C@@H]1C(=O)N[C@H](Cc1c[nH]cn1)C(=O)N[C@H](CC(C)C)C(=O)N[C@H](CCCNC(=N)N)C(=O)N[C@H](CCCCN)C(=O)N[C@@H](C(=O)N[C@H](CCCNC(=N)N)C(=O)N[C@H](C)C(=O)N[C@H](CC(C)C)C(=O)N[C@H](CCCNC(=N)N)C(=O)N[C@H](CO)C(=O)N[C@H](CC(C)C)C(=O)NCC(=O)N[C@H](CC(C)C)C(=O)N[C@H](CCCNC(=N)N)C(=O)N[C@H](CC(C)C)C(=O)N[C@H](C)C(=O)N[C@H](CCC(N)=O)C(N)=O)C(C)C) [Compound 6]
IC50: 417 µM

Ac-l{d-norLeucine}rGvrlrvGlrkrrrrrGΦ-NH2 (Ac-[dL][dNle][dR]G[dV][dR][dL][dR][dV]G[dL][dR][dK][dR][dR][dR][dR][dR]G[2Nal]-NH2; SMILES CCCC[C@@H](NC(=O)[C@@H](CC(C)C)NC(C)=O)C(=O)N[C@H](CCCNC(=N)N)C(=O)NCC(=O)N[C@@H](C(=O)N[C@H](CCCNC(=N)N)C(=O)N[C@H](CC(C)C)C(=O)N[C@H](CCCNC(=N)N)C(=O)N[C@@H](C(=O)NCC(=O)N[C@H](CC(C)C)C(=O)N[C@H](CCCNC(=N)N)C(=O)N[C@H](CCCCN)C(=O)N[C@H](CCCNC(=N)N)C(=O)N[C@H](CCCNC(=N)N)C(=O)N[C@H](CCCNC(=N)N)C(=O)N[C@H](CCCNC(=N)N)C(=O)N[C@H](CCCNC(=N)N)C(=O)NCC(=O)N[C@@H](Cc1ccc2ccccc2c1)C(N)=O)C(C)C)C(C)C) [Compound 12]
IC50: 17 µM

Ac-l{d-norLeucine}rGvrlrvGlrkrrrrrrr-NH2 (Ac-[dL][dNle][dR]G[dV][dR][dL][dR][dV]G[dL][dR][dK][dR][dR][dR][dR][dR][dR][dR]-NH2; SMILES CCCC[C@@H](NC(=O)[C@@H](CC(C)C)NC(C)=O)C(=O)N[C@H](CCCNC(=N)N)C(=O)NCC(=O)N[C@@H](C(=O)N[C@H](CCCNC(=N)N)C(=O)N[C@H](CC(C)C)C(=O)N[C@H](CCCNC(=N)N)C(=O)N[C@@H](C(=O)NCC(=O)N[C@H](CC(C)C)C(=O)N[C@H](CCCNC(=N)N)C(=O)N[C@H](CCCCN)C(=O)N[C@H](CCCNC(=N)N)C(=O)N[C@H](CCCNC(=N)N)C(=O)N[C@H](CCCNC(=N)N)C(=O)N[C@H](CCCNC(=N)N)C(=O)N[C@H](CCCNC(=N)N)C(=O)N[C@H](CCCNC(=N)N)C(=O)N[C@H](CCCNC(=N)N)C(N)=O)C(C)C)C(C)C) [Compound 10]
IC50: 13 µM

Ac-lvrsvGlrrrrrrrr-NH2 (Ac-[dL][dV][dR][dS][dV]G[dL][dR][dR][dR][dR][dR][dR][dR][dR]-NH2; SMILES CC(=O)N[C@H](CC(C)C)C(=O)N[C@@H](C(=O)N[C@H](CCCNC(=N)N)C(=O)N[C@H](CO)C(=O)N[C@@H](C(=O)NCC(=O)N[C@H](CC(C)C)C(=O)N[C@H](CCCNC(=N)N)C(=O)N[C@H](CCCNC(=N)N)C(=O)N[C@H](CCCNC(=N)N)C(=O)N[C@H](CCCNC(=N)N)C(=O)N[C@H](CCCNC(=N)N)C(=O)N[C@H](CCCNC(=N)N)C(=O)N[C@H](CCCNC(=N)N)C(=O)N[C@H](CCCNC(=N)N)C(N)=O)C(C)C)C(C)C) [Compound 5]
IC50: 35 µM

Ac-l{d-norLeucine}rsvrlrvGlrkrrrrrrr-NH2 (Ac-[dL][dNle][dR][dS][dV][dR][dL][dR][dV]G[dL][dR][dK][dR][dR][dR][dR][dR][dR][dR]-NH2; SMILES CCCC[C@@H](NC(=O)[C@@H](CC(C)C)NC(C)=O)C(=O)N[C@H](CCCNC(=N)N)C(=O)N[C@H](CO)C(=O)N[C@@H](C(=O)N[C@H](CCCNC(=N)N)C(=O)N[C@H](CC(C)C)C(=O)N[C@H](CCCNC(=N)N)C(=O)N[C@@H](C(=O)NCC(=O)N[C@H](CC(C)C)C(=O)N[C@H](CCCNC(=N)N)C(=O)N[C@H](CCCCN)C(=O)N[C@H](CCCNC(=N)N)C(=O)N[C@H](CCCNC(=N)N)C(=O)N[C@H](CCCNC(=N)N)C(=O)N[C@H](CCCNC(=N)N)C(=O)N[C@H](CCCNC(=N)N)C(=O)N[C@H](CCCNC(=N)N)C(=O)N[C@H](CCCNC(=N)N)C(N)=O)C(C)C)C(C)C) [Compound 9]
IC50: 20 µM

Ac-lmrsvrlrvGlrkaG: : : (cFΦR4) (Ac-[dL][dM][dR][dS][dV][dR][dL][dR][dV]G[dL][dR][dK][dA]GF[2Nal]RRRRQ; not fully specified (bridges); printed as Ac-lmrsvrlrvGlrkaG: : : (cFΦR4); also: core joined by ':::' to cyclo(FΦRRRRQ), junction not defined) [Compound 3]
IC50: 7.3 µM

Ac-l{d-norLeucine}rGvrlrvGlrkrrrrGy-NH2 (Ac-[dL][dNle][dR]G[dV][dR][dL][dR][dV]G[dL][dR][dK][dR][dR][dR][dR]G[dY]-NH2; SMILES CCCC[C@@H](NC(=O)[C@@H](CC(C)C)NC(C)=O)C(=O)N[C@H](CCCNC(=N)N)C(=O)NCC(=O)N[C@@H](C(=O)N[C@H](CCCNC(=N)N)C(=O)N[C@H](CC(C)C)C(=O)N[C@H](CCCNC(=N)N)C(=O)N[C@@H](C(=O)NCC(=O)N[C@H](CC(C)C)C(=O)N[C@H](CCCNC(=N)N)C(=O)N[C@H](CCCCN)C(=O)N[C@H](CCCNC(=N)N)C(=O)N[C@H](CCCNC(=N)N)C(=O)N[C@H](CCCNC(=N)N)C(=O)N[C@H](CCCNC(=N)N)C(=O)NCC(=O)N[C@H](Cc1ccc(O)cc1)C(N)=O)C(C)C)C(C)C) [Compound 11]
IC50: 9 µM
